{"source": "patent US9714236B2", "about": "“Compounds and methods for inhibiting JAK” (AstraZeneca AB, priority 2015, dated 2017)", "type_in_all_cases": "biochemical", "key": {"[1]": {"target": "recombinant JAK1 (amino acids 866-1154) (Homo sapiens (Human), UniProt P23458)", "sequence (P23458 866-1154)": "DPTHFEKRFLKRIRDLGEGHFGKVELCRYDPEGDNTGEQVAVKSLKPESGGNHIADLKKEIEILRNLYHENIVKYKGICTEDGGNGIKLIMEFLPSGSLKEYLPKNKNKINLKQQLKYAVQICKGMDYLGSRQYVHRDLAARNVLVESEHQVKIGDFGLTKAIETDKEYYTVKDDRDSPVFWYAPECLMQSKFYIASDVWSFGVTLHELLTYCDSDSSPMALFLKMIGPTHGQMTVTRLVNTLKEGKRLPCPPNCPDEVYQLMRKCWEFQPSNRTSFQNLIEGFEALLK", "test": "Enzyme inhibition studies, JAK1 (peptide phosphorylation, Caliper LC3000)", "settings": "ATP concentration not given (assayed at ATP Km 55 μM and at 5 mM)", "description": "(§1) Enzyme inhibition studies were performed using recombinant JAK1 (amino acids 866-1154, Life Technologies, #PV4774, Carlsbad, Calif.), JAK2 (amino acids 831-1132), or JAK3 (amino acids 781-1124) under buffer conditions of 50 mM HEPES pH 7.3, 1 mM DTT, 0.01% Tween® 20, 50 μg/mL BSA, and 10 mM MgCl2. JAK enzyme was expressed as an N-terminal GST fusion in insect cells and purified by glutathione-affinity and size-exclusion chromatographies. […] Phosphorylated and unphosphorylated peptides were separated and quantified by a Caliper LC3000 system (Caliper Life Sciences, MA) for calculating percent inhibition."}, "[2]": {"target": "recombinant JAK2 (amino acids 831-1132) (Homo sapiens (Human), UniProt O60674)", "sequence (O60674 831-1132)": "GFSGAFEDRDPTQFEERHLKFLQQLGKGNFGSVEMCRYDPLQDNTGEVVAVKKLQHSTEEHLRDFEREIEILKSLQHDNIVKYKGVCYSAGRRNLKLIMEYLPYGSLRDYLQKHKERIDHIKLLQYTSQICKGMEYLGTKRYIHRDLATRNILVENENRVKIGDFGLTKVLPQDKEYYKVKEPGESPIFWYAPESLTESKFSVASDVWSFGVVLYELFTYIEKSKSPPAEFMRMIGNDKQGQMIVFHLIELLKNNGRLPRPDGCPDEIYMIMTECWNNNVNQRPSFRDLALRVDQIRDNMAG", "test": "Enzyme inhibition studies, JAK2 (peptide phosphorylation, Caliper LC3000)", "settings": "ATP concentration of the tabulated values not stated (assayed at ATP Km 15 μM and at 5 mM)", "description": "as §1"}, "[3]": {"target": "recombinant JAK3 (amino acids 781-1124) (Homo sapiens (Human), UniProt P52333)", "sequence (P52333 781-1124)": "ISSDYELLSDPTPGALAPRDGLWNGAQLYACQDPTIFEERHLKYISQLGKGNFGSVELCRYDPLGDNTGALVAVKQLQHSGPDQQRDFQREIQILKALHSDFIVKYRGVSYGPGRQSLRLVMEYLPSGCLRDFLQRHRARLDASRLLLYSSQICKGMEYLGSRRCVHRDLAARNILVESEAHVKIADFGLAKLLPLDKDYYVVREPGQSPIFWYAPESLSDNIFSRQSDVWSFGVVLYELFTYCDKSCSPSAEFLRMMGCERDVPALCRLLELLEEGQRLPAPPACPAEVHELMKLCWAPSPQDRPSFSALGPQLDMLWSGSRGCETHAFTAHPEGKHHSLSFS", "test": "Enzyme inhibition studies, JAK3 (peptide phosphorylation, Caliper LC3000)", "settings": "ATP concentration of the tabulated values not stated (assayed at ATP Km 3 μM and at 5 mM)", "description": "as §1"}}, "data": [{"compound": "COc1nn(C)cc1Nc1ncc(C)c(-c2c[nH]c3c(NC(=O)[C@@H](C)N4CCN(C)[C@H](C)C4)cccc23)n1", "note": "[Example 18, (2R)-2-[(3R)-3,4-dimethylpiperazin-1-yl]-N-(3-{2-[(3-methoxy-1-methyl-1H-pyrazol-4-yl)amino]-5-methylpyrimidin-4-yl}-1H-indol-7-yl)propanamide]", "values": [{"measurement": "IC50", "setting": "[1]", "result": 0.057, "unit": "µM"}, {"measurement": "IC50", "setting": "[2]", "result": 17.3, "unit": "µM"}, {"measurement": "IC50", "setting": "[3]", "result": "> 30", "unit": "µM"}]}, {"compound": "COc1nn(C)cc1Nc1ncc(C)c(-c2c[nH]c3c(NC(=O)[C@@H](C)N4CCN(C)C[C@@H]4C)cccc23)n1", "note": "[Example 19, (2R)-2-[(2S)-2,4-dimethylpiperazin-1-yl]-N-(3-{2-[(3-methoxy-1-methyl-1H-pyrazol-4-yl)amino]-5-methylpyrimidin-4-yl}-1H-indol-7-yl)propanamide]", "values": [{"measurement": "IC50", "setting": "[1]", "result": 0.296, "unit": "µM"}, {"measurement": "IC50", "setting": "[2]", "result": "> 30", "unit": "µM"}, {"measurement": "IC50", "setting": "[3]", "result": "> 30", "unit": "µM"}]}, {"compound": "CCOc1nn(C)cc1Nc1ncc(C)c(-c2c[nH]c3c(NC(=O)[C@@H](C)N4CCN(CC)CC4)cccc23)n1", "note": "[Example 20, (2R)-N-(3-{2-[(3-ethoxy-1-methyl-1H-pyrazol-4-yl)amino]-5-methylpyrimidin-4-yl}-1H-indol-7-yl)-2-(4-ethylpiperazin-1-yl)propanamide]", "values": [{"measurement": "IC50", "setting": "[1]", "result": 0.051, "unit": "µM"}, {"measurement": "IC50", "setting": "[2]", "result": 17.2, "unit": "µM"}, {"measurement": "IC50", "setting": "[3]", "result": "> 30", "unit": "µM"}]}, {"compound": "CCOc1nn(C)cc1Nc1ncc(C)c(-c2c[nH]c3c(NC(=O)[C@@H](C)N4CCN(CCOC)CC4)cccc23)n1", "note": "[Example 21, (2R)-N-(3-{2-[(3-ethoxy-1-methyl-1H-pyrazol-4-yl)amino]-5-methylpyrimidin-4-yl}-1H-indol-7-yl)-2-[4-(2-methoxyethyl)piperazin-1-yl]propanamide]", "values": [{"measurement": "IC50", "setting": "[1]", "result": 0.184, "unit": "µM"}, {"measurement": "IC50", "setting": "[2]", "result": "> 30", "unit": "µM"}, {"measurement": "IC50", "setting": "[3]", "result": "> 30", "unit": "µM"}]}, {"compound": "CCOc1nn(C)cc1Nc1ncc(C)c(-c2c[nH]c3c(NC(=O)[C@@H](C)N4CCN(C)C[C@@H]4C)cccc23)n1", "note": "[Example 22, (2R)-2-[(2S)-2,4-dimethylpiperazin-1-yl]-N-(3-{2-[(3-ethoxy-1-methyl-1H-pyrazol-4-yl)amino]-5-methylpyrimidin-4-yl}-1H-indol-7-yl)propanamide]", "values": [{"measurement": "IC50", "setting": "[1]", "result": 0.49, "unit": "µM"}, {"measurement": "IC50", "setting": "[2]", "result": "> 30", "unit": "µM"}, {"measurement": "IC50", "setting": "[3]", "result": "> 30", "unit": "µM"}]}, {"compound": "CCOc1nn(C)cc1Nc1ncc(C)c(-c2c[nH]c3c(NC(=O)[C@@H](C)N4CCN(C)C[C@H]4C)cccc23)n1", "note": "[Example 23, (2R)-2-[(2R)-2,4-dimethylpiperazin-1-yl]-N-(3-{2-[(3-ethoxy-1-methyl-1H-pyrazol-4-yl)amino]-5-methylpyrimidin-4-yl}-1H-indol-7-yl)propanamide]", "values": [{"measurement": "IC50", "setting": "[1]", "result": 0.029, "unit": "µM"}, {"measurement": "IC50", "setting": "[2]", "result": 25.7, "unit": "µM"}, {"measurement": "IC50", "setting": "[3]", "result": "> 30", "unit": "µM"}]}, {"compound": "CCOc1nn(C)cc1Nc1ncc(C)c(-c2c[nH]c3c(NC(=O)[C@@H](C)N4CCN(C)[C@H](C)C4)cccc23)n1", "note": "[Example 24, (2R)-2-[(3R)-3,4-dimethylpiperazin-1-yl]-N-(3-{2-[(3-ethoxy-1-methyl-1H-pyrazol-4-yl)amino]-5-methylpyrimidin-4-yl}-1H-indol-7-yl)propanamide]", "values": [{"measurement": "IC50", "setting": "[1]", "result": 0.113, "unit": "µM"}, {"measurement": "IC50", "setting": "[2]", "result": "> 30", "unit": "µM"}, {"measurement": "IC50", "setting": "[3]", "result": "> 30", "unit": "µM"}]}, {"compound": "COc1nn(C)cc1Nc1ncc(F)c(-c2c[nH]c3c(NC(=O)[C@@H](C)N4CCN(C)CC4)cccc23)n1", "note": "[Example 25, (2R)-N-(3-{5-Fluoro-2-[(3-methoxy-1-methyl-1H-pyrazol-4-yl)amino]pyrimidin-4-yl}-1H-indol-7-yl)-2-(4-methylpiperazin-1-yl)propanamide]", "values": [{"measurement": "IC50", "setting": "[1]", "result": 0.019, "unit": "µM"}, {"measurement": "IC50", "setting": "[2]", "result": 6.62, "unit": "µM"}, {"measurement": "IC50", "setting": "[3]", "result": "> 30", "unit": "µM"}]}, {"compound": "COc1nn(C)cc1Nc1nccc(-c2c[nH]c3c(NC(=O)[C@@H](C)N4CCN(C)[C@@H](C)C4)cccc23)n1", "note": "[Example 26, (2R)-2-[(3S)-3,4-dimethylpiperazin-1-yl]-N-(3-{2-[(3-methoxy-1-methyl-1H-pyrazol-4-yl)amino]pyrimidin-4-yl}-1H-indol-7-yl)propanamide]", "values": [{"measurement": "IC50", "setting": "[1]", "result": 0.069, "unit": "µM"}, {"measurement": "IC50", "setting": "[2]", "result": 16.7, "unit": "µM"}, {"measurement": "IC50", "setting": "[3]", "result": "> 30", "unit": "µM"}]}, {"compound": "COCCN1CCN([C@H](C)C(=O)Nc2cccc3c(-c4ccnc(Nc5cn(C)nc5OC)n4)c[nH]c23)CC1", "note": "[Example 27, (2R)-2-[4-(2-methoxyethyl)piperazin-1-yl]-N-(3-{2-[(3-methoxy-1-methyl-1H-pyrazol-4-yl)amino]pyrimidin-4-yl}-1H-indol-7-yl)propanamide]", "values": [{"measurement": "IC50", "setting": "[1]", "result": 0.575, "unit": "µM"}, {"measurement": "IC50", "setting": "[2]", "result": "> 30", "unit": "µM"}, {"measurement": "IC50", "setting": "[3]", "result": "> 30", "unit": "µM"}]}, {"compound": "CCN1CCN([C@H](C)C(=O)Nc2cccc3c(-c4ccnc(Nc5cn(C)nc5OC)n4)c[nH]c23)CC1", "note": "[Example 28]", "values": [{"measurement": "IC50", "setting": "[1]", "result": 0.106, "unit": "µM"}, {"measurement": "IC50", "setting": "[2]", "result": 11.8, "unit": "µM"}, {"measurement": "IC50", "setting": "[3]", "result": "> 30", "unit": "µM"}]}, {"compound": "COc1nn(C)cc1Nc1nccc(-c2c[nH]c3c(NC(=O)[C@@H](C)N4CCN(C)[C@H](C)C4)cccc23)n1", "note": "[Example 30, (2R)-2-[(3R)-3,4-dimethylpiperazin-1-yl]-N-(3-{2-[(3-methoxy-1-methyl-1H-pyrazol-4-yl)amino]pyrimidin-4-yl}-1H-indol-7-yl)propanamide]", "values": [{"measurement": "IC50", "setting": "[1]", "result": 0.304, "unit": "µM"}, {"measurement": "IC50", "setting": "[2]", "result": "> 30", "unit": "µM"}, {"measurement": "IC50", "setting": "[3]", "result": "> 30", "unit": "µM"}]}, {"compound": "CCOc1nn(C)cc1Nc1ncc(C)c(-c2c[nH]c3c(NC(=O)[C@@H](C)N4CCN(C)[C@@H](C)C4)cccc23)n1", "note": "[Example 31a, (2R)-2-[(3S)-3,4-dimethylpiperazin-1-yl]-N-(3-{2-[(3-ethoxy-1-methyl-1H-pyrazol-4-yl)amino]-5-methylpyrimidin-4-yl}-1H-indol-7-yl)propanamide]", "values": [{"measurement": "IC50", "setting": "[1]", "result": 0.015, "unit": "µM"}, {"measurement": "IC50", "setting": "[2]", "result": 19.8, "unit": "µM"}, {"measurement": "IC50", "setting": "[3]", "result": "> 30", "unit": "µM"}]}, {"compound": "CCOc1nn(C)cc1Nc1ncc(C)c(-c2c[nH]c3c(NC(=O)[C@H](C)N4CCN(C)[C@@H](C)C4)cccc23)n1", "note": "[Example 31b, (2S)-2-[(3S)-3,4-dimethylpiperazin-1-yl]-N-(3-{2-[(3-ethoxy-1-methyl-1H-pyrazol-4-yl)amino]-5-methylpyrimidin-4-yl}-1H-indol-7-yl)propanamide]", "values": [{"measurement": "IC50", "setting": "[1]", "result": 0.454, "unit": "µM"}, {"measurement": "IC50", "setting": "[2]", "result": "> 30", "unit": "µM"}, {"measurement": "IC50", "setting": "[3]", "result": "> 30", "unit": "µM"}]}, {"compound": "COc1nn(C)cc1Nc1ncc(C)c(-c2c[nH]c3c(NC(=O)[C@H](C)N4CCN(C)CC4)cccc23)n1", "note": "[Example 33, (2S)-N-(3-{2-[(3-methoxy-1-methyl-1H-pyrazol-4-yl)amino]-5-methylpyrimidin-4-yl}-1H-indol-7-yl)-2-(4-methylpiperazin-1-yl)propanamide]", "values": [{"measurement": "IC50", "setting": "[1]", "result": 0.272, "unit": "µM"}, {"measurement": "IC50", "setting": "[2]", "result": "> 30", "unit": "µM"}, {"measurement": "IC50", "setting": "[3]", "result": "> 30", "unit": "µM"}]}, {"compound": "COc1nn(C)cc1Nc1ncc(C)c(-c2c[nH]c3c(NC(=O)[C@@H](C)N4CCN(C)CC4)cccc23)n1", "note": "[Example 34, (2R)-N-(3-{2-[(3-Methoxy-1-methyl-1H-pyrazol-4-yl)amino]-5-methylpyrimidin-4-yl}-1H-indol-7-yl)-2-(4-methylpiperazin-1-yl)propanamide]", "values": [{"measurement": "IC50", "setting": "[1]", "result": 0.01, "unit": "µM"}, {"measurement": "IC50", "setting": "[2]", "result": 5.37, "unit": "µM"}, {"measurement": "IC50", "setting": "[3]", "result": "> 30", "unit": "µM"}]}, {"compound": "CCOc1nn(C)cc1Nc1ncc(C)c(-c2c[nH]c3c(NC(=O)[C@@H](C)N4CCN(C)CC4)cccc23)n1", "note": "[Example 35, (2R)-N-(3-{2-[(3-ethoxy-1-methyl-1H-pyrazol-4-yl)amino]-5-methylpyrimidin-4-yl}-1H-indol-7-yl)-2-(4-methylpiperazin-1-yl)propanamide]", "values": [{"measurement": "IC50", "setting": "[1]", "result": 0.02, "unit": "µM"}, {"measurement": "IC50", "setting": "[2]", "result": 17, "unit": "µM"}, {"measurement": "IC50", "setting": "[3]", "result": "> 30", "unit": "µM"}]}, {"compound": "COc1nn(C)cc1Nc1ncc(Cl)c(-c2c[nH]c3c(NC(=O)[C@@H](C)N4CCN(C)CC4)cccc23)n1", "note": "[Example 36, (2R)-N-(3-{5-chloro-2-[(3-methoxy-1-methyl-1H-pyrazol-4-yl)amino]pyrimidin-4-yl}-1H-indol-7-yl)-2-(4-methylpiperazin-1-yl)propanamide]", "values": [{"measurement": "IC50", "setting": "[1]", "result": 0.007, "unit": "µM"}, {"measurement": "IC50", "setting": "[2]", "result": 1.76, "unit": "µM"}, {"measurement": "IC50", "setting": "[3]", "result": 19.1, "unit": "µM"}]}]}
